{
  "source": "the NIST ThermoML archive (doi:10.1016/j.fluid.2017.07.024)",
  "key": {"[1]": {"assay": "molar heat capacity at constant pressure", "conditions": "101 kPa, Power-Compensation Calorimetry"}, "[2]": {"assay": "wn = mass fraction of the nth substance listed", "conditions": "101 kPa, Liquid, Capillary tube (Ostwald / Ubbelohde) method, w1 = 0.9"}, "[3]": {"conditions": "Liquid, Closed cell (Static) method"}},
  "note": "± gives the expanded uncertainty stated by the source.",
  "data": [
    {"smiles": "CCCCn1cc[n+](C)c1.[Br-]", "note": "[1-butyl-3-methylimidazolium bromide]", "values": [
      {"measurement": "molar heat capacity at constant pressure", "setting": "[1]; 283.15 K, Crystal", "result": "265.14 ± 15", "unit": "J/K/mol"},
      {"measurement": "molar heat capacity at constant pressure", "setting": "[1]; 293.15 K, Crystal", "result": "269.52 ± 15", "unit": "J/K/mol"},
      {"measurement": "molar heat capacity at constant pressure", "setting": "[1]; 303.15 K, Crystal", "result": "276.09 ± 15", "unit": "J/K/mol"},
      {"measurement": "molar heat capacity at constant pressure", "setting": "[1]; 313.15 K, Crystal", "result": "289.24 ± 15", "unit": "J/K/mol"},
      {"measurement": "molar heat capacity at constant pressure", "setting": "[1]; 323.15 K, Crystal", "result": "308.96 ± 15", "unit": "J/K/mol"},
      {"measurement": "molar heat capacity at constant pressure", "setting": "[1]; 333.15 K, Crystal", "result": "361.55 ± 18", "unit": "J/K/mol"},
      {"measurement": "molar heat capacity at constant pressure", "setting": "[1]; 343.15 K, Crystal", "result": "705.57 ± 26", "unit": "J/K/mol"},
      {"measurement": "molar heat capacity at constant pressure", "setting": "[1]; 353.15 K, Liquid", "result": "352.79 ± 18", "unit": "J/K/mol"},
      {"measurement": "molar heat capacity at constant pressure", "setting": "[1]; 363.15 K, Liquid", "result": "359.36 ± 18", "unit": "J/K/mol"},
      {"measurement": "molar heat capacity at constant pressure", "setting": "[1]; 373.15 K, Liquid", "result": "363.74 ± 18", "unit": "J/K/mol"}
    ]},
    {"smiles": "CCCCn1cc[n+](C)c1.[Br-]", "note": "[1-butyl-3-methylimidazolium bromide] + O", "values": [
      {"measurement": "kinematic viscosity", "setting": "[2]; 313.15 K", "result": "2.21e-05 ± 9e-07", "unit": "m2/s"},
      {"measurement": "kinematic viscosity", "setting": "[2]; 323.15 K", "result": "1.56e-05 ± 6.3e-07", "unit": "m2/s"},
      {"measurement": "kinematic viscosity", "setting": "[2]; 333.15 K", "result": "1.14e-05 ± 4.6e-07", "unit": "m2/s"},
      {"measurement": "kinematic viscosity", "setting": "[2]; 343.15 K", "result": "8.58e-06 ± 3.5e-07", "unit": "m2/s"},
      {"measurement": "kinematic viscosity", "setting": "[2]; 353.15 K", "result": "6.65e-06 ± 2.7e-07", "unit": "m2/s"},
      {"measurement": "kinematic viscosity", "setting": "[2]; 363.15 K", "result": "5.34e-06 ± 2.2e-07", "unit": "m2/s"},
      {"measurement": "kinematic viscosity", "setting": "[2]; 373.15 K", "result": "4.34e-06 ± 1.8e-07", "unit": "m2/s"}
    ]},
    {"smiles": "O", "note": "[water]", "values": [
      {"measurement": "vapor or sublimation pressure", "setting": "[3]; 274.15 K", "result": "0.671 ± 0.029", "unit": "kPa"},
      {"measurement": "vapor or sublimation pressure", "setting": "[3]; 276.15 K", "result": "0.778 ± 0.034", "unit": "kPa"},
      {"measurement": "vapor or sublimation pressure", "setting": "[3]; 279.15 K", "result": "0.956 ± 0.041", "unit": "kPa"},
      {"measurement": "vapor or sublimation pressure", "setting": "[3]; 282.15 K", "result": "1.171 ± 0.05", "unit": "kPa"},
      {"measurement": "vapor or sublimation pressure", "setting": "[3]; 285.15 K", "result": "1.428 ± 0.061", "unit": "kPa"},
      {"measurement": "vapor or sublimation pressure", "setting": "[3]; 288.15 K", "result": "1.739 ± 0.074", "unit": "kPa"},
      {"measurement": "vapor or sublimation pressure", "setting": "[3]; 291.15 K", "result": "2.103 ± 0.089", "unit": "kPa"},
      {"measurement": "vapor or sublimation pressure", "setting": "[3]; 294.15 K", "result": "2.525 ± 0.11", "unit": "kPa"},
      {"measurement": "vapor or sublimation pressure", "setting": "[3]; 297.15 K", "result": "3.035 ± 0.13", "unit": "kPa"},
      {"measurement": "vapor or sublimation pressure", "setting": "[3]; 300.15 K", "result": "3.62 ± 0.15", "unit": "kPa"},
      {"measurement": "vapor or sublimation pressure", "setting": "[3]; 303.15 K", "result": "4.299 ± 0.18", "unit": "kPa"},
      {"measurement": "vapor or sublimation pressure", "setting": "[3]; 304.45 K", "result": "4.659 ± 0.19", "unit": "kPa"},
      {"measurement": "vapor or sublimation pressure", "setting": "[3]; 306.15 K", "result": "5.104 ± 0.21", "unit": "kPa"},
      {"measurement": "vapor or sublimation pressure", "setting": "[3]; 308.55 K", "result": "5.85 ± 0.24", "unit": "kPa"},
      {"measurement": "vapor or sublimation pressure", "setting": "[3]; 313.45 K", "result": "7.631 ± 0.32", "unit": "kPa"},
      {"measurement": "vapor or sublimation pressure", "setting": "[3]; 318.15 K", "result": "9.698 ± 0.4", "unit": "kPa"},
      {"measurement": "vapor or sublimation pressure", "setting": "[3]; 323.45 K", "result": "12.68 ± 0.52", "unit": "kPa"},
      {"measurement": "vapor or sublimation pressure", "setting": "[3]; 328.65 K", "result": "16.35 ± 0.67", "unit": "kPa"},
      {"measurement": "vapor or sublimation pressure", "setting": "[3]; 333.15 K", "result": "20.22 ± 0.83", "unit": "kPa"},
      {"measurement": "vapor or sublimation pressure", "setting": "[3]; 337.45 K", "result": "24.61 ± 1", "unit": "kPa"},
      {"measurement": "vapor or sublimation pressure", "setting": "[3]; 345.65 K", "result": "35.27 ± 1.4", "unit": "kPa"},
      {"measurement": "vapor or sublimation pressure", "setting": "[3]; 353.85 K", "result": "49.37 ± 2", "unit": "kPa"},
      {"measurement": "vapor or sublimation pressure", "setting": "[3]; 364.35 K", "result": "74.26 ± 3", "unit": "kPa"},
      {"measurement": "vapor or sublimation pressure", "setting": "[3]; 372.15 K", "result": "99.51 ± 4", "unit": "kPa"}
    ]}
  ]
}
